Tests used:
Settings in all cases: LAPC4, 24 h
LAPC4 [1] = assay: Inhibition of 3-alpha-diol conversion to 5-alpha-dihydrotestosterone in human LAPC4 cells assessed in 200000 cells at 10 uM measured after 24 hrs using [14C]-3-alpha-diol/[14C]-3-beta-diol (9:1) as non-radiolabeled/radiolabeled 20:1 mixture by TLC analysis relative to control; assay type: functional
LAPC4 [2] = assay: Inhibition of 3-alpha-diol conversion to 5-alpha-dihydrotestosterone in human LAPC4 cells assessed in 200000 cells at 3 uM measured after 24 hrs using [14C]-3-alpha-diol/[14C]-3-beta-diol (9:1) as non-radiolabeled/radiolabeled 20:1 mixture by TLC analysis relative to control; assay type: functional
LAPC4 [3] = assay: Inhibition of 3-alpha-diol conversion to 5-alpha-dihydrotestosterone in human LAPC4 cells assessed in 100000 cells at 10 uM measured after 24 hrs using [14C]-3-alpha-diol/[14C]-3-beta-diol (9:1) as non-radiolabeled/radiolabeled 20:1 mixture by TLC analysis relative to control; assay type: functional
LAPC4 [4] = assay: Inhibition of 3-alpha-diol conversion to 5-alpha-dihydrotestosterone in human LAPC4 cells assessed in 100000 cells at 3 uM measured after 24 hrs using [14C]-3-alpha-diol/[14C]-3-beta-diol (9:1) as non-radiolabeled/radiolabeled 20:1 mixture by TLC analysis relative to control; assay type: functional
LAPC4 [5] = assay: Inhibition of 3-alpha-diol conversion to 5-alpha-dihydrotestosterone in human LAPC4 cells assessed in 200000 cells measured after 24 hrs using [14C]-3-alpha-diol/[14C]-3-beta-diol (9:1) as non-radiolabeled/radiolabeled 20:1 mixture by TLC analysis; assay type: functional, cell-based

Row | Structure (SMILES) | inhibition at 10 µM (LAPC4 [1]) | inhibition at 3 µM (LAPC4 [2]) | inhibition at 10 µM (LAPC4 [3]) | inhibition at 3 µM (LAPC4 [4]) | IC50 (LAPC4 [5])
1 | COc1ccc(C(F)(F)F)c(N2CCN(C[C@@]3(O)CC[C@@]4(C)[C@@H](CC[C@@H]5[C@@H]4CC[C@]4(C)C(=O)CC[C@@H]54)C3)CC2)c1 | 48% | 27.6% |  |  | 
2 | COc1cc(N2CCN(C[C@@]3(O)CC[C@@]4(C)[C@@H](CC[C@@H]5[C@@H]4CC[C@]4(C)C(=O)CC[C@@H]54)C3)CC2)ccc1F | 37.2% | 21.4% |  |  | 
3 | C[C@]12CC[C@](O)(CN3CCN(C(=S)Nc4ccc5ccccc5c4)CC3)C[C@@H]1CC[C@@H]1[C@@H]2CC[C@]2(C)C(=O)CC[C@@H]12 | 42.1% | 41.1% |  |  | 
4 | C#C[C@]1(O)CC[C@H]2[C@@H]3CC[C@H]4C[C@@](O)(CN5CCN(Cc6cccc(OC)c6)CC5)CC[C@]4(C)[C@H]3CC[C@@]21C |  |  | 44.2% | 35.4% | 
5 | C[C@]12CC[C@](O)(CN3CCN(S(=O)(=O)c4ccc5ccccc5c4)CC3)C[C@@H]1CC[C@@H]1[C@@H]2CC[C@]2(C)C(=O)CC[C@@H]12 | 19.1% | 0.1% |  |  | 
6 | COc1cccc(CN2CCN(C[C@@]3(O)CC[C@@]4(C)[C@@H](CC[C@@H]5[C@@H]4CC[C@@]4(C)[C@H]5CC[C@]4(C)O)C3)CC2)c1 |  |  | 36.5% | 17.8% | 
7 | C[C@]12CC[C@](O)(CN3CCN(C(=O)c4ccc5ccccc5c4)CC3)C[C@@H]1CC[C@@H]1[C@@H]2CC[C@]2(C)C(=O)CC[C@@H]12 | 65.3% | 43.6% |  |  | 6.1 µM
8 | COc1cccc(CN2CCN(C[C@@]3(O)CC[C@@]4(C)[C@@H](CC[C@@H]5[C@@H]4CC[C@@]4(C)[C@H]5CCC4(F)F)C3)CC2)c1 |  |  | 49.7% | 33.7% | 
9 | C[C@]12CC[C@](O)(CN3CCN(Cc4ccc5ccccc5n4)CC3)C[C@@H]1CC[C@@H]1[C@@H]2CC[C@]2(C)C(=O)CC[C@@H]12 |  |  | 27.4% | 8.4% | 
10 | COc1cc(N2CCN(C[C@@]3(O)CC[C@@]4(C)[C@@H](CC[C@@H]5[C@@H]4CC[C@]4(C)C(=O)CC[C@@H]54)C3)CC2)ccc1C(F)(F)F | 63.2% | 37.4% | 55.6% | 33.7% | 
11 | C[C@]12CC[C@](O)(CN3CCN(C(=S)NCc4cccc(C(F)(F)F)c4)CC3)C[C@@H]1CC[C@@H]1[C@@H]2CC[C@]2(C)C(=O)CC[C@@H]12 | 57.7% | 47.7% | 49.7% | 27% | 3.6 µM
12 | CC(=O)c1cccc(CN2CCN(C[C@@]3(O)CC[C@@]4(C)[C@@H](CC[C@@H]5[C@@H]4CC[C@]4(C)C(=O)CC[C@@H]54)C3)CC2)c1 |  |  | 15.5% | 3.7% | 
13 | COc1cccc(CN2CCN(C[C@@]3(O)CC[C@@]4(C)[C@@H](CC[C@@H]5[C@@H]4CC[C@]4(C)C(=O)C(C)(C)C[C@@H]54)C3)CC2)c1 |  |  | 21.5% | 11.8% | 
14 | C[C@]12CC[C@@H](O)C[C@@H]1CC[C@@H]1[C@@H]2CC[C@]2(C)C(=O)CC[C@@H]12 [ANDROSTERONE] | 83.8% | 85.7% |  |  | 
15 | CCN(C)S(=O)(=O)N1CCN(C[C@@]2(O)CC[C@@]3(C)[C@@H](CC[C@@H]4[C@@H]3CC[C@]3(C)C(=O)CC[C@@H]43)C2)CC1 |  |  | 3.3% | 0% | 
16 | CN(C)S(=O)(=O)c1ccc(NC(=S)N2CCN(C[C@@]3(O)CC[C@@]4(C)[C@@H](CC[C@@H]5[C@@H]4CC[C@]4(C)C(=O)CC[C@@H]54)C3)CC2)cc1 |  |  | 31.7% | 14.3% | 
17 | C[C@]12CC[C@](O)(CN3CCN(Cc4ccc5ccccc5c4)CC3)C[C@@H]1CC[C@@H]1[C@@H]2CC[C@]2(C)C(=O)CC[C@@H]12 | 51.4% | 30.1% |  |  | 
18 | COc1cccc(CN2CCN(C[C@@]3(O)CC[C@@]4(C)[C@@H](CC[C@@H]5[C@@H]4CC[C@]4(C)[C@@H](O)CC[C@@H]54)C3)CC2)c1 |  |  | 28.3% | 21.2% | 
19 | COc1cc(CN2CCN(C[C@@]3(O)CC[C@@]4(C)[C@@H](CC[C@@H]5[C@@H]4CC[C@]4(C)C(=O)CC[C@@H]54)C3)CC2)cc(C(F)(F)F)c1 | 62.9% | 46.8% |  |  | 3.7 µM
20 | COc1cc(CN2CCN(C[C@@]3(O)CC[C@@]4(C)[C@@H](CC[C@@H]5[C@@H]4CC[C@]4(C)C(=O)CC[C@@H]54)C3)CC2)ccc1C(F)(F)F |  |  |  |  | 8 µM
21 | COc1cc(CN2CCN(C[C@@]3(O)CC[C@@]4(C)[C@@H](CC[C@@H]5[C@@H]4CC[C@]4(C)C(=O)CC[C@@H]54)C3)CC2)ccc1C |  |  | 49% | 22.3% | 
22 | COc1cc(C)ccc1CN1CCN(C[C@@]2(O)CC[C@@]3(C)[C@@H](CC[C@@H]4[C@@H]3CC[C@]3(C)C(=O)CC[C@@H]43)C2)CC1 |  |  | 51.2% | 12.2% | 
23 | C#C[C@]1(O)CC[C@H]2[C@@H]3CC[C@H]4C[C@@](O)(CN5CCN(Cc6ccc(C(F)(F)F)c(OC)c6)CC5)CC[C@]4(C)[C@H]3CC[C@@]21C | 88.8% | 74% |  |  | 1.2 µM
24 | COc1cccc(CN2CCN(C[C@@]3(O)CC[C@@]4(C)[C@@H](CC[C@@H]5[C@@H]4CC[C@]4(C)C(=O)CC[C@@H]54)C3)CC2)c1 |  |  | 42.5% | 21.5% | 
25 | C[C@]12CCC(O)C[C@@H]1CC[C@@H]1[C@@H]2CC[C@]2(C)[C@@H](O)CC[C@@H]12 (stereo not given in full) | 87% | 73.6% | 79.3% | 46.9% | 0.56 µM
26 | C#C[C@]1(O)CC[C@H]2[C@@H]3CC[C@H]4C[C@@](O)(CN5CCN(Cc6cccc(OC)c6C(F)(F)F)CC5)CC[C@]4(C)[C@H]3CC[C@@]21C | 56.2% | 44.3% |  |  | 14.1 µM
27 | COc1cccc(CN2CCN(C[C@@]3(O)CC[C@@]4(C)[C@@H](CC[C@@H]5[C@@H]4CC[C@]4(C)[C@H](O)CC[C@@H]54)C3)CC2)c1 |  |  | 27.6% | 9.5% | 

From ChEMBL document CHEMBL4613219, “Formation of 5α-dihydrotestosterone from 5α-androstane-3α,17β-diol in prostate cancer LAPC-4 cells - Identifying inhibitors of non-classical pathways producing the most potent androgen” (Bioorg Med Chem Lett, 2020)
